Test results as given in US20260193254A1, “2-OXOQUINAZOLINE CRYSTALLINE FORMS” (IDEAYA Biosciences, Inc., priority 2022, published 2026).

What was measured:
Format in all cases: physicochemical
[1] = Variable humidity and temperature XRPD experiments
Method: Based on DVS and DSC results of Form C, Form C starts to loss water when humidity is below 30% or when temperature is higher than about 44° C. […] In order to determine identity of potential form changes after the dehydration and upon the solid-solid transition, variable humidity and variable temperature XRPD techniques were applied. XRPD patterns of the sample were measured online under 25° C./ambient environment (initial)-120° C./N2 protection-25° C./ambient environment-25° C./80% RH (40 min)-25° C./0% RH (15 h), and 25° C./ambient environment (initial)-250° C./N2 protection-25° C./ambient environment. […] Form L coverts back to Form C after exposure to 25° C./80% RH for 40 min.
Based on DVS and DSC results of Form D, Form D starts to loss water when humidity is below 10% or when temperature is higher than 46° C. In order to determine identity of the dehydration product, variable humidity and variable temperature XRPD techniques were applied. XRPD patterns of the sample were measured online with a temperature cycle of 25° C./ambient environment (initial)-130° C./N2 protection (10 min)-25° C./N2 protection-25° C./ambient environment (3h) and two water sorption and desorption cycles of 50% RH (initial)-90% RH (3h)-60% RH (2h)-40% RH (2h)-20% RH (3h)-10% RH (3h)-0% RH (6h)-10% RH (3h)-20% RH (3h)-50% RH at 25° C. […] (higher than dehydration temperature). Form S converts back to Form D after exposure to ambient condition for 3 h.
In order to investigate potential form change of Form A upon heating, variable temperature XRPD technique was applied. XRPD patterns of the sample were measured online with a temperature cycle of 25° C. (initial)-50° C./N2 protection-70° C./N2 protection-250° C./N2 protection-25° C./N2 protection-25° C./ambient condition (3h). […] Form A converts to Form U when temperature is 250° C., and Form U converts to Form T after cooling to 25° C.

[2] = Competitive equilibration experiments; settings: 25° C. and 50° C.
Method: These solvents were saturated with the compound of Formula (I) before addition of the polymorph seeds. Obtained suspension was stirred at 25° C. or 50° C. for 5 days. Solid part (wet cake) was isolated by filtration and investigated by XRPD.

[3] = Grinding simulation experiments - dry grinding
Method: About 20 mg of Form A, Form D, and Form T were ground manually with a mortar and a pestle for 5 min or 1 min. Potential from transition and degree of crystallinity were evaluated by XRPD.

[4] = Grinding simulation experiments - wet grinding (granulation)
Method: Water or ethanol was added drop wise to about 20 mg of Form A, Form D, or Form T until solid was wetted sufficiently. Vortex was applied between each addition. Samples were dried under ambient condition for 10 min. Potential form transition and degree of crystallinity were evaluated by XRPD.

[5] = Variable humidity and temperature XRPD experiments; remark: listed apart in the source
[6] = Equilibration with solvents at 25° C. for 2 weeks; settings: equilibration at 25° C. for 2 weeks
Method: (§1) Obtained suspension was filtered. The solid part (wet cake) was investigated by XRPD. When differences were observed, additional investigations were performed (e.g. DSC, TGA etc.).

[7] = Equilibration with solvents at 50° C. for 1 week; settings: XRPD of wet cake
Method: as §1

[8] = Crystallization at room temperature by fast evaporation; settings: nitrogen flow
Excerpt: The samples are filtered by 0.45 μm nylon filter. Obtained solutions were fast evaporated under nitrogen flow. Solid residues were examined for their polymorphic form.

[9] = Precipitation by addition of anti-solvent; settings: 1/5 (v:v)
Method: Anti-solvent was added into the obtained solutions slowly. Precipitates were collected by filtration. The solid part (wet cake) was investigated by XRPD. When differences were observed, additional investigations will be performed (e.g. […] etc.).

[10] = Crystallization from hot saturated solutions by slow cooling; settings: 50° C. to 5° C. at 0.1° C./min
Method: Obtained solution or suspension was filtered by a 0.45 μm syringe membrane filter. Clear solutions were cooled to 5° C. at 0.1° C./min. Precipitates were collected by filtration. The solid part (wet cake) was investigated by XRPD. When differences were observed, additional investigations were performed (e.g. DSC, TGA, etc.).

[11] = Crystallization from hot saturated solutions by fast cooling; settings: 50° C. to ice bath
Method: Obtained solution or suspension was filtered by a 0.45 μm syringe membrane filter. Clear solutions were put into an ice bath and agitated. Precipitates were collected by filtration. The solid part (wet cake) was investigated by XRPD. When differences were observed, additional investigations were performed (e.g. DSC, TGA, etc.).

[12] = variable temperature XRPD, N2 protection

Nc1nc(=O)n(-c2ccccc2Cl)c2nc(C(F)(F)F)ccc12 [Form A, 4-Amino-1-(2-chlorophenyl)-7-(trifluoromethyl)pyrido[2,3-d]pyrimidin-2(1H)-one]
XRPD (XRPD method 2) ([1]; VT16 70° C./37% RH (10 min)): Form A | XRPD (XRPD method 2) ([1]; VT18 25° C./N2 protection (10 min)): Form T | XRPD (XRPD method 2) ([1]; VT19 25° C./37% RH (3 h)): Form T | form change after heating to 70° C. [1, 12]: no form change | form obtained on heating to 250° C. [1, 12]: Form U | form obtained in competitive equilibration experiments (relative stability of Form A and Form I) [2]: Form A were obtained from all the experiments | XRPD after dry grinding ([3]; Dry grinding for 1 min): substantially amorphous | XRPD after dry grinding ([3]; Dry grinding for 5 min): substantially amorphous | tolerance to dry grinding ([3]; ground manually with mortar and pestle, 5 min or 1 min, XRPD): poor tolerance | XRPD after wet grinding ([4]; Ethanol): substantially amorphous | tolerance to granulation with ethanol or water ([4]; wet grinding, XRPD): poor tolerance | XRPD (XRPD method 2) ([5]; VT14 25° C./37% RH (initial)): Form A | XRPD (XRPD method 2) ([5]; VT15 50° C./37% RH (10 min)): Form A | XRPD (XRPD method 2) ([5]; VT17 250° C./37% RH (10 min)): Form U

Nc1nc(=O)n(-c2ccccc2Cl)c2nc(C(F)(F)F)ccc12 [solid state Form V, 4-Amino-1-(2-chlorophenyl)-7-(trifluoromethyl)pyrido[2,3-d]pyrimidin-2(1H)-one]
Crystalline Form ([6]; Acetone (63 mg/mL)): Form G | Crystalline Form ([6]; Acetone/water = 1/1 (v/v) (63 mg/mL)): Form G | Crystalline Form ([6]; Acetonitrile/water = 1/1 (v/v) (62 mg/mL)): Form A | Crystalline Form ([6]; Ethanol/water = 1/1 (v/v) (64 mg/mL)): Form C (hemi-hydrate) | Crystalline Form ([6]; Methanol (65 mg/mL)): Form C (hemi-hydrate) | Crystalline Form ([6]; Methanol/water = 1/1 (v/v) (64 mg/mL)): Form E (hemi-hydrate) | Crystalline Form ([6]; t-Butyl methyl ether (65 mg/mL)): Form H (MTBE solvate) | Crystalline Form ([6]; t-Butyl methyl ether/water = 95/5(v/v) (63 mg/mL)): Form H (MTBE solvate) | Crystalline Form formed by equilibration ([7]; EQ20 Water (64 mg/mL)): Form D (mono hydrate) | Crystalline Form formed by equilibration ([7]; EQ21 Methanol (63 mg/mL)): Form C (hemi-hydrate) | Crystalline Form formed by equilibration ([7]; EQ22 Methanol/water = 1/1 (v/v) (64 mg/mL)): Form E (hemi-hydrate) | Crystalline Form formed by equilibration ([7]; EQ24 Ethanol/water = 1/1 (v/v) (63 mg/mL)): Form C (hemi-hydrate) | Crystalline Form formed by equilibration ([7]; EQ26 Acetone (65 mg/mL)): Form G | Crystalline Form formed by equilibration ([7]; EQ27 Acetone/water = 1/1 (v/v) (63 mg/mL)): Form I | Crystalline Form formed by equilibration ([7]; EQ29 t-Butyl methyl ether (65 mg/mL)): Form H (MTBE solvate) | Crystalline Form formed by equilibration ([7]; EQ30 t-Butyl methyl ether/water = 95/5 (v/v) (63 mg/mL)): Form H (MTBE solvate) | Crystalline Form formed by fast evaporation ([8]; FE1 Methanol (14 mg/mL)): Form B | Crystalline Form formed by fast evaporation ([8]; FE2 Ethanol (7 mg/mL)): Solid state Form V | Crystalline Form formed by fast evaporation ([8]; FE3 2-Propanol (4 mg/mL)): Solid state Form V | Crystalline Form formed by fast evaporation ([8]; FE6 Acetone (3 mg/mL)): Form G | Crystalline Form formed by fast evaporation ([8]; FE7 Methyl ethyl ketone (3 mg/mL)): Form G | Crystalline Form formed by fast evaporation ([8]; FE9 Tetrahydrofuran (4 mg/mL)): Form K | Crystalline Form formed by fast evaporation ([8]; FE10 Acetonitrile (3 mg/mL)): Solid state Form V | Crystalline Form formed by fast evaporation ([8]; FE12 Methanol/Ethyl acetate = 1/1 (v/v) (5 mg/mL)): Solid state Form V | Crystalline Form formed by fast evaporation ([8]; FE13 Methanol/Acetonitrile = 1/1 (v/v) (5 mg/mL)): Solid state Form V | Crystalline Form formed by fast evaporation ([8]; FE14 Ethanol/t-Butyl methyl ether = 1/1 (v/v) (5 mg/mL)): Solid state Form V | Crystalline Form formed by fast evaporation ([8]; FE15 Ethanol/Dichloromethane = 1/1 (v/v) (5 mg/mL)): Solid state Form V | Crystalline Form formed by addition of anti-solvent ([9]; AS5 Ethanol (7), anti-solvent Heptane): Form G | Crystalline Form formed by addition of anti-solvent ([9]; AS8 Ethanol (7), anti-solvent Water): Form F | Crystalline Form formed by slow cooling of hot saturated solution ([10]; SC2 Ethanol (14 mg/mL)): Form F | Crystalline Form formed by slow cooling of hot saturated solution ([10]; SC4 Acetone (7 mg/mL)): Form G | Crystalline Form formed by slow cooling of hot saturated solution ([10]; SC6 Ethanol/water = 1/1 (v/v) (8 mg/mL)): Form F | Crystalline Form formed by slow cooling of hot saturated solution ([10]; SC8 Ethanol/acetone = 1/1 (v/v) (16 mg/mL)): Form G | Crystalline Form formed by fast cooling of hot saturated solution ([11]; FC1 Methanol (30 mg/mL)): Form C | Crystalline Form formed by fast cooling of hot saturated solution ([11]; FC2 Ethanol (13 mg/mL)): Solid state Form V | Crystalline Form formed by fast cooling of hot saturated solution ([11]; FC3 2-Propanol (7 mg/mL)): Form J (IPA solvate) | Crystalline Form formed by fast cooling of hot saturated solution ([11]; FC4 Acetone (7 mg/mL)): Form G | Crystalline Form formed by fast cooling of hot saturated solution ([11]; FC5 Methanol/water = 1/1 (v/v) (6 mg/mL)): Form C | Crystalline Form formed by fast cooling of hot saturated solution ([11]; FC6 Ethanol/water = 1/1 (v/v) (8 mg/mL)): Form F | Crystalline Form formed by fast cooling of hot saturated solution ([11]; FC7 Methanol/MTBE = 1/1 (v/v) (13 mg/mL)): Form H (MTBE solvate)
